# Data as given in US20230355594A1, “TOPICAL OPHTHALMOLOGICAL COMPOSITIONS” (ADS THERAPEUTICS LLC, priority 2020, published 2023).
# Values joined by “and” are separate entries in the source; they are usually repeats but may differ in a detail not shown here. Equal values may be shown once. Read-outs that look alike come from different tables or passages of the source.
# Conditions: for Atropine concentraion, Observed stable concentration after 10X serial dilution of the saturating concentration: successive 10X dilutions
# [1] = 99.25% F6H8, 0.75% phenylethyl alcohol
compound,measurement,setting,value
CN1[C@@H]2CC[C@H]1C[C@@H](OC(=O)C(CO)c1ccccc1)C2 (stereo partly shown) [atropine],"Atropine concentraion, Measured saturating concentraion by HPLC/UV","98.00% F6H8, 2.00% isopropanol",0.153 w/w %
same,"Atropine concentraion, Measured saturating concentraion by HPLC/UV","99.25% F6H8, 0.75% ethanol",0.108 w/w %
same,"Atropine concentraion, Observed stable concentration after 10X serial dilution of the saturating concentration","99.25% F6H8, 0.75% ethanol",0.0108 w/w % and 0.00108 w/w % and 0.000108 w/w %
same,"Atropine concentraion, Measured saturating concentraion by HPLC/UV","99.25% F6H8, 0.75% isopropanol",0.082 w/w %
same,"Atropine concentraion, Observed stable concentration after 10X serial dilution of the saturating concentration","99.25% F6H8, 0.75% isopropanol",0.0082 w/w % and 0.00082 w/w % and 0.000082 w/w %
same,"Atropine concentraion, Measured saturating concentraion by HPLC/UV",[1],0.085 w/w %
same,"Atropine concentraion, Observed stable concentration after 10X serial dilution of the saturating concentration",[1],0.0085 w/w % and 0.00085 w/w % and 0.000085 w/w %
same,"Atropine concentraion, Measured saturating concentraion by HPLC/UV","99.50% F6H8, 0.50% ethanol",0.089 w/w %
same,"Atropine concentraion, Measured saturating concentraion by HPLC/UV","99.50% F6H8, 0.50% isopropanol",0.055 w/w %
same,"Atropine concentraion, Measured saturating concentraion by HPLC/UV","99.50% F6H8, 0.50% phenylethyl alcohol",0.055 w/w %
same,"Atropine concentraion, Measured saturating concentraion by HPLC/UV","99.75% F6H8, 0.25% ethanol",0.031 w/w %
same,"Atropine concentraion, Measured saturating concentraion by HPLC/UV","99.75% F6H8, 0.25% isopropanol",0.046 w/w %
same,"Atropine concentraion, Measured saturating concentraion by HPLC/UV","99.75% F6H8, 0.25% phenylethyl alcohol",0.043 w/w %
